Measured values reported in US10087209B2, “Antiviral compounds, a process for their preparation, and their use for treating viral infections” (KU LEUVEN RESEARCH & DEVELOPMENT, priority 2015, dated 2018).
Structures can show the parent of a compound that is named as a salt.

Experiments:
[1] = test system: HBV wild-type strain ayw1 in HepG2 2.2.15 cells; experiment: Primary anti-HBV assay: extracellular HBV DNA copy number by real-time qPCR (TaqMan); format: cell-based, Hepatitis B virus
Experimental: (§1) The primary anti-HBV assay is performed as previously described (Korba, B F and Milman, G. A cell culture assay for compound which inhibit hepatitis B virus replication. Antiviral Res. 1991, 15, 217-228; and Korba, B F and Gerin, J L. Use of a standardized cell culture assay to assess activities of nucleoside analogs again hepatitis B virus replication. Antiviral Res. 1992, 19, 55-70) with modifications to use real-time qPCR (TaqMan) to measure extracellular HBV DNA copy number associated with virions released from HepG2 2.2.15 cells. The HepG2 2.2.15 cell line is a stable human hepatoblastoma cell line that contains two copies of the HBV wild-type strain ayw1 genome and constitutively produces high levels of HBV. Antiviral compounds blocking any late step of viral replication such as transcription, translation, pregenome encapsidation, reverse transcription, particle assembly and release can be identified and characterized using this cell line.
(§2) Briefly, HepG2 2.2.15 cells are plated in 96-well microtiter plates at 1.5×10^4 cells/well in Dulbecco's Modified Eagle's Medium supplemented with 2% FBS, 380 μg/mL G418, 2.0 mM L-Glutamine, 100 units/mL Penicillin, 100 μg/mL Streptomycin, and 0.1 mM non-essential amino acids. Only the interior wells are utilized to reduce “edge effects” observed during cell culture; the exterior wells are filled with complete medium to help minimize sample evaporation. After 16-24 hours the confluent monolayer of HepG2 2.2.15 cells is washed and the medium is replaced with complete medium containing various concentrations of a test compound in triplicate Lamivudine (3TC) is used as the positive control, while media alone is added to cells as a negative control (virus control, VC). Three days later the culture medium is replaced with fresh medium containing the appropriately diluted test compounds. Six days following the initial administration of the test compound, the cell culture supernatant is collected, treated with pronase and then used in a real-time quantitative TaqMan qPCR assay. The PCR-amplified HBV DNA is detected in real-time by monitoring increases in fluorescent signal that result from the exonucleolytic degradation of a quenched fluorescent probe molecule that hybridizes to the amplified HBV DNA. For each PCR amplification, a standard curve is simultaneously generated using dilutions of purified HBV DNA. Antiviral activity is calculated from the reduction in HBV DNA levels (EC50 & EC90 values determined). A tetrazolium dye (MTS; 3-(4,5-dimethylthiazol-2-yl)-5-(3-carboxy-methoxyphenyl)-2-(4-sulfophenyl)-2H-tetrazolium; CellTiter®96 Reagent, Promega) uptake assay is then employed to measure cell viability, which is used to calculate toxicity (CC50). The Selectivity Index (SI50) is calculated as CC50/IC50.

[2] = MTS tetrazolium dye uptake cell viability assay (primary assay); format: cell-based, human; settings: human, HepG2 2.2.15 cells
Experimental: as §2

[3] = test system: HBV wild-type strain ayw1 in HepG2 2.2.15 cells; experiment: microbe, parasite or virus in culture; format: cell-based; settings: Hepatitis B virus
Experimental: as §1
Briefly, HepG2 2.2.15 cells are plated in 96-well microtiter plates at 1.5×10^4 cells/well in Dulbecco's Modified Eagle's Medium supplemented with 2% FBS, 380 μg/mL G418, 2.0 mM L-Glutamine, 100 units/mL Penicillin, 100 μg/mL Streptomycin, and 0.1 mM non-essential amino acids. Only the interior wells are utilized to reduce “edge effects” observed during cell culture; the exterior wells are filled with complete medium to help minimize sample evaporation. After 16-24 hours the confluent monolayer of HepG2 2.2.15 cells is washed and the medium is replaced with complete medium containing various concentrations of a test compound in triplicate Lamivudine (3TC) is used as the positive control, while media alone is added to cells as a negative control (virus control, VC). Three days later the culture medium is replaced with fresh medium containing the appropriately diluted test compounds. Six days following the initial administration of the test compound, the cell culture supernatant is collected, treated with pronase and then used in a real-time quantitative TaqMan qPCR assay. The PCR-amplified HBV DNA is detected in real-time by monitoring increases in fluorescent signal that result from the exonucleolytic degradation of a quenched fluorescent probe molecule that hybridizes to the amplified HBV DNA. For each PCR amplification, a standard curve is simultaneously generated using dilutions of purified HBV DNA. Antiviral activity is calculated from the reduction in HBV DNA levels (EC50 & EC90 values determined). A tetrazolium dye (MTS; 3-(4,5-dimethylthiazol-2-yl)-5-(3-carboxy-methoxyphenyl)-2-(4-sulfophenyl)-2H-tetrazolium; CellTiter®96 Reagent, Promega) uptake assay is then employed to measure cell viability, which is used to calculate toxicity (CC50). The Selectivity Index (SI50) is calculated as CC50/IC50. […]

HIV-1 = settings: cited from earlier work
HIV-2 = settings: cited from earlier work
[4] = read-out: CC50 (cellular cytotoxicity); cited from earlier work
in vitro = format: cell-based; settings: human; HepG2 2.2.15 cells, secondary assay
Experimental: Briefly, HepG2 2.2.15 cells are plated in 96-well microtiter plates at 1.5×10^4 cells/well in Dulbecco's Modified Eagle's Medium supplemented with 2% FBS, 380 μg/mL G418, 2.0 mM L-Glutamine, 100 units/mL Penicillin, 100 μg/mL Streptomycin, and 0.1 mM non-essential amino acids. Only the interior wells are utilized to reduce “edge effects” observed during cell culture; the exterior wells are filled with complete medium to help minimize sample evaporation. After 16-24 hours the confluent monolayer of HepG2 2.2.15 cells is washed and the medium is replaced with complete medium containing various concentrations of a test compound in triplicate Lamivudine (3TC) is used as the positive control, while media alone is added to cells as a negative control (virus control, VC). […] Six days following the initial administration of the test compound, the cell culture supernatant is collected, treated with pronase and then used in a real-time quantitative TaqMan qPCR assay. The PCR-amplified HBV DNA is detected in real-time by monitoring increases in fluorescent signal that result from the exonucleolytic degradation of a quenched fluorescent probe molecule that hybridizes to the amplified HBV DNA. […] Antiviral activity is calculated from the reduction in HBV DNA levels (EC50 & EC90 values determined). […] The Selectivity Index (SI50) is calculated as CC50/IC50. […]

HepG2 2.2.15 cells = experiment: MTS tetrazolium dye uptake cell viability assay (primary assay); format: cell-based, human
Experimental: as §2

[5] = Hepatitis B virus, 144 h, reduction in extracellular HBV DNA, HepG2 2.2.15 cells, six days, read-out: EC50
[6] = Hepatitis B virus, 144 h, reduction in extracellular HBV DNA, HepG2 2.2.15 cells, six days, read-out: EC90
[7] = Hepatitis B virus, HepG2 2.2.15, 144 h

Row | SMILES | EC50 [1, 5] | EC90 [1, 6] | CC50 at 6 days [2] | EC50 [1, 7] | EC90 [1, 7] | other results
1 | Nc1ccn([C@@H]2CS[C@H](CO)O2)c(=O)n1 [3TC (Lamivudine), Lamivudine, reference compound] | 0.03 µM | > 2 µM | > 2 µM |  |  | EC50 ([3]; reduction in intracellular HBV DNA, HepG2 2.2.15 cells, read-out: EC50): < 0.01 µM; EC90 ([3]; reduction in intracellular HBV DNA, HepG2 2.2.15 cells, read-out: EC90): > 2 µM
2 | Nc1ncnc2c1ncn2[C@H]1C[C@@H](OCP(=O)(O)O)CO1 [PMDTA, 1′α-(Adenin-9-yl)-2′-deoxy-3′-O-phosphonomethyl-L-threose triethylammonium salt, reference compound] | 0.5 µM | > 100 µM | > 100 µM |  |  | EC50 (HIV-1; read-out: EC50 value against HIV-1): 2.53 µM; EC50 (HIV-2; read-out: EC50 value against HIV-2): 2.53 µM; CC50 [4]: > 316 µM
3 | Cc1cn([C@H]2C[C@@H](OCP(=O)(O)O)CO2)c(=O)[nH]c1=O [PMDTT, 1′α-(Thymin-1-yl)-2′-deoxy-3′-O-phosphonomethyl-L-threose triethylammonium salt, reference compound] | 40.2 µM | > 100 µM | > 100 µM |  |  | IC50 (HIV-1; read-out: IC50 value against HIV-1): 6.59 µM; IC50 (HIV-2; read-out: IC50 value against HIV-2): 6.59 µM; CC50 [4]: > 343 µM
4 | CC(C)OC(=O)[C@H](C)NP(=O)(CO[C@H]1CO[C@@H](n2cnc3c(N)ncnc32)C1)Oc1ccccc1 (some centres unmarked) [compound 17] |  |  | > 10 µM | 0.03 µM | > 10 µM | 
5 | CC(C)CCOC(=O)C[C@H](NP(=O)(CO[C@H]1CO[C@@H](n2cnc3c(N)ncnc32)C1)Oc1ccccc1)C(=O)OCCC(C)C (some centres unmarked) [compound 18] |  |  | 55.5 µM | 0.01 µM | 0.98 µM | EC50 ([3]; HepG2 2.2.15): < 0.01 µM; EC90 ([3]; HepG2 2.2.15): 0.36 µM; CC50 at 6 days (in vitro): 35.2 µM
6 | Cc1cn([C@H]2C[C@@H](OCP(=O)(N[C@@H](C)C(=O)OC(C)C)Oc3ccccc3)CO2)c(=O)[nH]c1=O (some centres unmarked) [compound 20] |  |  | > 100 µM | 0.26 µM | > 10 µM | 
7 | Cc1cn([C@H]2C[C@@H](OCP(=O)(N[C@@H](CC(=O)OCCC(C)C)C(=O)OCCC(C)C)Oc3ccccc3)CO2)c(=O)[nH]c1=O (some centres unmarked) [compound 21] |  |  | 59.6 µM | 0.25 µM | > 10 µM | 
8 | CC(C)OC(=O)[C@H](C)NP(=O)(CO[C@H]1CO[C@@H](n2ccc(N)nc2=O)C1)Oc1ccccc1 (stereo partly drawn) [compound 32, 1′α-(Cytosin-1-yl)-2′-deoxy-3′-O—{[N-(isopropyl-L-alaninate)](phenoxy)-methylphosphonoamidate}-L-threose] |  |  | > 100 µM | 47.9 µM | > 100 µM | 
9 | CCCOC(=O)[C@H](Cc1ccccc1)NP(=O)(CO[C@H]1CO[C@@H](n2cnc3c(=O)[nH]c(N)nc32)C1)N[C@@H](Cc1ccccc1)C(=O)OCCC [compound 39] | > 100 µM | > 100 µM | > 100 µM |  |  | 
10 | CC(C)OC(=O)[C@H](C)NP(=O)(CO[C@H]1CO[C@@H](n2cnc3c(=O)[nH]c(N)nc32)C1)Oc1ccccc1 (some centres unmarked) [compound 40] |  |  | > 100 µM | > 100 µM | > 100 µM | 
11 | CC(C)OC(=O)[C@H](C)NP(=O)(COC1COC(n2cnc3c(=O)[nH]c(N)nc32)C1)Oc1ccccc1 (stereo partly drawn) [compound 41, 1′α-(Guanin-9-yl)-2′-deoxy-3′-O—{[N-(isopropyl-L-alaninate)](phenoxy)-methylphosphonoamidate}-L-threose] |  |  |  |  |  | EC50 ([1]; reduction in extracellular HBV DNA, HepG2 2.2.15 cells, six days, read-out: EC50): > 100 µM; EC90 ([1]; reduction in extracellular HBV DNA, HepG2 2.2.15 cells, six days, read-out: EC90): > 100 µM; CC50 (HepG2 2.2.15 cells): > 100 µM
